# Results from BindingDB's records for doi:10.3109/14756366.2011.649267 (South Dakota State University, 2013).
# Target: T1, Glutaredoxin-1 (Human, UniProt P35754)
# T1 sequence (P35754 whole entry): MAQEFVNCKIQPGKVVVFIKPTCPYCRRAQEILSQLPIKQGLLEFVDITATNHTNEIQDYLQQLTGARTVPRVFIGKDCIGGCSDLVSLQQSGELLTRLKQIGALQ
# Test: GRX Assay
# Conditions: pH 8; 25 °C
# Protocol: Human GRX-1 (0.25 unit/mL) was incubated at 25 °C with increasing concentrations of 2-AAPA (25, 50, 100, and 200 μM) and BSA (1 mg/mL). Aliquots were withdrawn for determination of GRX activity at 3, 10, and 20 min. Control incubations without 2-AAPA were conducted in parallel. The aliquots were added to the GRX assay solution, and enzyme activity was determined from a coupled reaction with GR based on a literature reported procedure with minor modification. In this assay, a mixed disulfide between GSH and the mercaptoethanol moiety derived from 2-hydroxyethyldisulfide (HED) served as the substrate for GRX; briefly GSH (10 mM) and HED (7 mM) were premixed in water for 5 min before transferring onto ice. The final GRXassay solution contained GSH (1 mM), HED (0.7mM), GR (0.02 units/mL), NADPH (0.2 mM), and bovine serum albumin (BSA, 1 mg/mL) in Trisbuffer (pH 8, 0.1 M). Theactivity was determined by monitoring the disappearance of NADPH spectrophotometrically at λ = 340 nm [Holmgren et al., Meth. Enzymol., 252:283-292].
structure (smiles),measurement,value
CC(=O)NC(CSC(=S)Nc1ccc(NC(=S)SCC(NC(C)=O)C(=O)O)cc1)C(=O)O (stereo unspecified) [2-AAPA],Ki,91.3 µM
